Reference: patent publication US8822688B2, “Imidazo[1,2-a]pyridine derivative” (Astellas Pharma Inc., priority 2010, dated 2014)
Counter-ions that a name gives are not always drawn.

molecular target: T1, human PDE4B2 (Homo sapiens, UniProt Q07343); test: Human PDE4B activity inhibition test (SPA, [3H]-cAMP); type: biochemical; settings: FLAG-tagged human PDE4B2 purified from COS-1 cells; 30 min at room temperature; read-out: IC50 (nM), human PDE4B inhibitory activity
T1 construct: FLAG; made in house; host or cells: COS-1 cells (plasmid amplified in E. coli)
Description: Test Method 1: Human PDE4B Inhibitory Activity
(1) Purification of Human PDE4B Enzyme
Plasmid DNA encoding FLAG-tagged human PDE4B2 was prepared and transfected into E. coli, and mass cultivation was performed. After extracting and purifying the plasmid DNA from the E. coli, the resultant was transfected into COS-1 cells and cultured. After the cells were homogenized, the expressed enzyme was purified using a FLAG peptide affinity column.
(2) Human PDE4B Activity Inhibition Test
1 μl/well of DMSO solution in which various concentrations of test compounds were dissolved and 74 μl/well of the purified enzyme diluted with a buffer were added to 96-well plates, and incubated at room temperature for 10 minutes. A buffer including 40 nM [^3H]-cAMP (Amersham, TRK559) and 4 μM cAMP were added at 25 μl/well and reacted for 30 minutes at room temperature. A suspension (18 mM ZnSO4, 5 mM IBMX, distilled water) of polylysin coated yttrium silicate SPA beads (Amersham, RPNQ0010) was added at 50 μl/well, and the reaction was stopped. After standing for 20 minutes at room temperature, the radioactivity was measured using a top count instrument and set as an index of enzyme activity. For evaluating the enzyme inhibitory activity of the test compound in each experiment, a value of IC50 was calculated with the radiation activity of the well of adding the vehicle (DMSO) and the enzyme as 0% inhibition and the radiation activity of the well of adding only the vehicle and not adding the enzyme as 100% inhibition.

T1 sequence (Q07343 1-564 isoform Q07343-2): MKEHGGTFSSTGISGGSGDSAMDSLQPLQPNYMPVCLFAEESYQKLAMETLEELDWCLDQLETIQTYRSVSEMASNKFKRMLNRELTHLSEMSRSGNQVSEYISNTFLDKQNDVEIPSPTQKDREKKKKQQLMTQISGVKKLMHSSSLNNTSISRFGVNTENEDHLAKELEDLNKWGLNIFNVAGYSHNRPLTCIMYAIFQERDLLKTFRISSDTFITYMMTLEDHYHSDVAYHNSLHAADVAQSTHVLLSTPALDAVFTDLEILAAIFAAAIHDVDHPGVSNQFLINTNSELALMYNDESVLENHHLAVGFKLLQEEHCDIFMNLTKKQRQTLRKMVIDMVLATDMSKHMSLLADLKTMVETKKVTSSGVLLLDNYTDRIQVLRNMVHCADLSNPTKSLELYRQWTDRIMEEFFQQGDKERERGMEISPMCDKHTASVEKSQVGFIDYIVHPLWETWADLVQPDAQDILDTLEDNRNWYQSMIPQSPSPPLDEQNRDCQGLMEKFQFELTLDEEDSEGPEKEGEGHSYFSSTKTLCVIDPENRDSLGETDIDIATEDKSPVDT

Row | IC50 | Structure (SMILES)
1 | 42 nM | NC(=O)c1c2c(c(N3CCC4(CO)CC4C3)n3c1nc1ccccc13)CCC2 (centres unmarked) [Example 23, 11-[6-(hydroxymethyl)-3-azabicyclo[4.1.0]hept-3-yl]-2,3-dihydro-1H-cyclopenta[4,5]pyrido[1,2-a]benzimidazole-4-carboxamide hydrochloride]
2 | 18 nM | CC1(CN)CCN(c2c3c(c(C(N)=O)c4nc5ccccc5n24)CCC3)CC1 [Example 18, 11-[4-(aminomethyl)-4-methylpiperidin-1-yl]-2,3-dihydro-1H-cyclopenta[4,5]pyrido[1,2-a]benzimidazole-4-carboxamide dihydrochloride]
3 | 48 nM | CO[C@]1(CO)CCN(c2c3c(c(C(N)=O)c4nc5ccccc5n24)CCC3)C[C@H]1F (relative stereo) [Example 10]
4 | 3.3 nM | COC1(CO)CCN(c2c3c(c(C(N)=O)c4nc5ccccc5n24)C2CCC3C2)CC1 (centres unmarked) [Example 14]
5 | 8 nM | COC1(CO)CCN(c2c3c(c(C(N)=O)c4nc5ccccc5n24)CCC3)CC1 [Example 8]
6 | 26 nM | COC1(CO)CCN(c2c3c(c(C(N)=O)c4nc5c(n24)CCCC5)CCC3)CC1 [Example 15]
7 | 11.8 nM | CO[C@@]1(CO)CCN(c2c3c(c(C(N)=O)c4nc5ccccc5n24)CC(C)(C)C3)C[C@@H]1F (relative stereo) [Example 22, rel-11-[(3R,4S)-3-fluoro-4-(hydroxymethyl)-4-methoxypiperidin-1-yl]-2,2-dimethyl-2,3-dihydro-1H-cyclopenta[4,5]pyrido[1,2-a]benzimidazole-4-carboxamide]
8 | 14 nM | N#CC1(CO)CCN(c2c3c(c(C(N)=O)c4nc5ccccc5n24)CCC3)CC1 [Example 5]
9 | 13 nM | CC1(CO)CCN(c2c3c(c(C(N)=O)c4nc5ccccc5n24)CCC3)CC1 [Example 2]
10 | 13 nM | NC(=O)c1c2c(c(N3CCC4(CCNC4)CC3)n3c1nc1ccccc13)CCC2 [Example 26]
11 | 2.7 nM | COC1(CO)CCN(c2c3c(c(C(N)=O)c4nc5ccccc5n24)CC(C)(C)C3)CC1 [Example 12]
12 | 8.2 nM | NC(=O)c1c2c(c(N3CCC4(CC3)CNC4)n3c1nc1ccccc13)CCC2 [Example 25, 11-(2,7-diazaspiro[3.5]non-7-yl)-2,3-dihydro-1H-cyclopenta[4,5]pyrido[1,2-a]benzimidazole-4-carboxamide dihydrochloride]
13 | 86 nM | CC1(C)CCc2c(c(N3CCC(C)(CO)CC3)n3c(nc4ccccc43)c2C(N)=O)C1 [Example 4]
14 | 15 nM | COC1(CO)CCN(c2c3c(c(C(N)=O)c4nc5ccccc5n24)CCSC3)CC1 [Example 16]
